ChEMBL document CHEMBL6083248, “Synthesis, pharmacological evaluation, and modeling of novel quaternary ammonium salts derived from β-carboline containing an imidazole moiety as angiogenesis inhibitors” (Bioorg Med Chem, 2024)

How the values were obtained:
BGC-823 = test: Antiproliferative activity against human BGC-823 cells assessed as inhibition of cell growth incubated for 48 hrs by MTT assay; assay type: functional, cell-based; details: BGC-823, 48 h
Bel-7402 = test: Antiproliferative activity against human Bel-7402 cells assessed as inhibition of cell growth incubated for 48 hrs by MTT assay; assay type: functional, cell-based; details: Bel-7402, 48 h
A549 = test: Antiproliferative activity against human A549 cells assessed as inhibition of cell growth incubated for 48 hrs by MTT assay; assay type: functional, cell-based; details: A549, 48 h
MCF7 = test: Antiproliferative activity against human MCF7 cells assessed as inhibition of cell growth incubated for 48 hrs by MTT assay; assay type: functional, cell-based; details: MCF7, 48 h
CT26 = test: Antiproliferative activity against mouse CT26 cells assessed as inhibition of cell growth incubated for 48 hrs by MTT assay; assay type: functional, cell-based; details: CT26, 48 h
Chorioallantoic membrane = test: Antiangiogenic activity in chicken embryo chorioallantoic membrane assessed as decrease in microvessel density incubated for 48 hrs by microscopic analysis; assay type: functional, tissue-based; details: Gallus gallus
[1] = target: Vascular endothelial growth factor receptor 2 (Mus musculus) (UniProt P35918); test: Inhibition of VEGFR2 autophosphorylation in mouse BEND3 cells incubated for 2 hrs by Western blotting analysis; assay type: cell-based
Vascular endothelial growth factor receptor 2 (Mus musculus), sequence (P35918 whole entry): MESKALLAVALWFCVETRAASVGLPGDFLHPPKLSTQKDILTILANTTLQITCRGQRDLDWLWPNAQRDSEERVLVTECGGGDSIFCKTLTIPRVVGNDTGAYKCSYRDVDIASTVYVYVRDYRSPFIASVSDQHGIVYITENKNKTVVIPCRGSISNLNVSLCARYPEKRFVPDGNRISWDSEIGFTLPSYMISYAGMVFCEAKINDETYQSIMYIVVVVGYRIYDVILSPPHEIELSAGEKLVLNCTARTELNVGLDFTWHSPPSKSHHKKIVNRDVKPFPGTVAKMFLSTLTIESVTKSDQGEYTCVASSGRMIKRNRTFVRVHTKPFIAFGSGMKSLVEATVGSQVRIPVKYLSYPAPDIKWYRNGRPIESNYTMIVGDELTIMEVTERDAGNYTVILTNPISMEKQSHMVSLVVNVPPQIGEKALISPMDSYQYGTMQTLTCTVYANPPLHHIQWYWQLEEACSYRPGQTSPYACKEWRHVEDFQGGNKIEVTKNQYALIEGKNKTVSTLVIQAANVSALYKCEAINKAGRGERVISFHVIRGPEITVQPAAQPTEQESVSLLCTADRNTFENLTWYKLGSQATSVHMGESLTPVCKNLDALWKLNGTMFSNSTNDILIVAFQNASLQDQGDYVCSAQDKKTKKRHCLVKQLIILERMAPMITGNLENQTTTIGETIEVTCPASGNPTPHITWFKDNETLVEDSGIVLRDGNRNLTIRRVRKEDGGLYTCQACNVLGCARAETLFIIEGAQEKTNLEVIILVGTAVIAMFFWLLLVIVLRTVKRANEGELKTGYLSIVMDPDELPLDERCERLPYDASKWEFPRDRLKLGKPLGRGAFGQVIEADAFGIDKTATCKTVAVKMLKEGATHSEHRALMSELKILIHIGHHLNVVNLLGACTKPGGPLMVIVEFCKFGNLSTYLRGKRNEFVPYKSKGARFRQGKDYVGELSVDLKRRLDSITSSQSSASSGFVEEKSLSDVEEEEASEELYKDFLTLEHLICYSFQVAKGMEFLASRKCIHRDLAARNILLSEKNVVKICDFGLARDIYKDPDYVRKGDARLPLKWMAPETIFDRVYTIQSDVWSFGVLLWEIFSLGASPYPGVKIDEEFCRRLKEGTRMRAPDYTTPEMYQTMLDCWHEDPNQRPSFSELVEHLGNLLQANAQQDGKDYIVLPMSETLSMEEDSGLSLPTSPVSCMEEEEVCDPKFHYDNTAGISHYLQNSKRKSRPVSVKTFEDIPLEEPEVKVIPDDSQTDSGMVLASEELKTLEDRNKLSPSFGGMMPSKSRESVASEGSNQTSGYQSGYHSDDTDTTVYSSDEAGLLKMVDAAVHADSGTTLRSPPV

## CN(C)c1ccc(-n2cc3cc4c5ccccc5n(C)c4c[n+]3c2)cc1
BGC-823
  IC50: 19.1 µM
Bel-7402
  IC50: 22.5 µM
A549
  IC50: 15.4 µM
MCF7
  IC50: 3.8 µM
CT26
  IC50: 23.5 µM

## COc1ccc(Cn2c3ccccc3c3cc4cn(-c5ccc(C(F)(F)F)cc5)c[n+]4cc32)cc1
BGC-823
  IC50: 3.5 µM
Bel-7402
  IC50: 4.1 µM
A549
  IC50: 9.9 µM
MCF7
  IC50: 15.7 µM
CT26
  IC50: 22.7 µM

## Cn1c2ccccc2c2cc3cn(-c4cc(F)cc(F)c4)c[n+]3cc21
BGC-823
  IC50: 3.5 µM
Bel-7402
  IC50: 19.2 µM
A549
  IC50: 12.2 µM
MCF7
  IC50: 9.2 µM
CT26
  IC50: 16.1 µM

## FC(F)(F)c1cccc(-n2cc3cc4c5ccccc5n(Cc5cccc(Cl)c5)c4c[n+]3c2)c1
BGC-823
  IC50: 10.9 µM
Bel-7402
  IC50: 5.5 µM
A549
  IC50: 8.5 µM
MCF7
  IC50: 1.4 µM
CT26
  IC50: 17.2 µM

## CN(C)c1ccc(-n2cc3cc4c5ccccc5n(Cc5cccc(Cl)c5)c4c[n+]3c2)cc1
BGC-823
  IC50: 11.9 µM
Bel-7402
  IC50: 8.1 µM
A549
  IC50: 12.3 µM
MCF7
  IC50: 7.9 µM
CT26
  IC50: 21.1 µM

## FC(F)(F)c1ccc(-n2cc3cc4c5ccccc5n(CCCc5ccccc5)c4c[n+]3c2)cc1
BGC-823
  IC50: 17.5 µM
Bel-7402
  IC50: 5.2 µM
A549
  IC50: 23.9 µM
MCF7
  IC50: 3.3 µM
CT26
  IC50: 4.8 µM

## CN(C)CCn1cc2cc3c4ccccc4n(CCCc4ccccc4)c3c[n+]2c1
BGC-823
  IC50: 13.1 µM
Bel-7402
  IC50: 8.4 µM
A549
  IC50: 10.6 µM
MCF7
  IC50: 1.5 µM
CT26
  IC50: 3.8 µM

## Cn1c2ccccc2c2cc3cn(-c4ccccc4)c[n+]3cc21
BGC-823
  IC50: 12.5 µM
Bel-7402
  IC50: 18.3 µM
A549
  IC50: 7.8 µM
MCF7
  IC50: 20.1 µM
CT26
  IC50: 18.4 µM

## FC(F)(F)c1cccc(-n2cc3cc4c5ccccc5n(Cc5ccccc5)c4c[n+]3c2)c1
BGC-823
  IC50: 20.6 µM
Bel-7402
  IC50: 3.5 µM
A549
  IC50: 20.9 µM
MCF7
  IC50: 11.5 µM
CT26
  IC50: 7.7 µM

## CCCCn1c2ccccc2c2cc3cn(-c4ccccc4)c[n+]3cc21
BGC-823
  IC50: 8.5 µM
Bel-7402
  IC50: 3.2 µM
A549
  IC50: 14.3 µM
MCF7
  IC50: 15.6 µM
CT26
  IC50: 1.1 µM

## Clc1cccc(Cn2c3ccccc3c3cc4cn(Cc5ccccc5)c[n+]4cc32)c1
BGC-823
  IC50: 12.6 µM
Bel-7402
  IC50: 10.8 µM
A549
  IC50: 22.6 µM
MCF7
  IC50: 16.9 µM
CT26
  IC50: 1.3 µM

## CCCCn1c2ccccc2c2cc3cn(-c4ccc(C(F)(F)F)cc4)c[n+]3cc21
BGC-823
  IC50: 1.3 µM
Bel-7402
  IC50: 7.8 µM
Chorioallantoic membrane
  Activity: Dose-dependent-effect
[1]
  inhibition: Dose-dependent-effect
A549
  IC50: 2.4 µM
MCF7
  IC50: 12.1 µM
CT26
  IC50: 9.8 µM

## Clc1cccc(Cn2c3ccccc3c3cc4cn(-c5ccccc5)c[n+]4cc32)c1
BGC-823
  IC50: 10.5 µM
Bel-7402
  IC50: 1.8 µM
A549
  IC50: 10.8 µM
MCF7
  IC50: 10.3 µM
CT26
  IC50: 5.8 µM

## COc1ccc(Cn2c3ccccc3c3cc4cn(-c5ccccc5)c[n+]4cc32)cc1
BGC-823
  IC50: 19.2 µM
Bel-7402
  IC50: 16.8 µM
A549
  IC50: 14.3 µM
MCF7
  IC50: 8.8 µM
CT26
  IC50: 13.3 µM

## Fc1ccc(Cn2c3ccccc3c3cc4cn(-c5ccccc5)c[n+]4cc32)cc1
BGC-823
  IC50: 14.1 µM
Bel-7402
  IC50: 15.9 µM
A549
  IC50: 23.5 µM
MCF7
  IC50: 12.5 µM
CT26
  IC50: 4.3 µM

## CN(C)CCn1cc2cc3c4ccccc4n(Cc4ccccc4)c3c[n+]2c1
BGC-823
  IC50: 2.8 µM
Bel-7402
  IC50: 8.3 µM
A549
  IC50: 11.7 µM
MCF7
  IC50: 4.6 µM
CT26
  IC50: 8.9 µM

## c1ccc(Cn2cc3cc4c5ccccc5n(Cc5ccccc5)c4c[n+]3c2)cc1
BGC-823
  IC50: 3.4 µM
Bel-7402
  IC50: 13.2 µM
A549
  IC50: 21.3 µM
MCF7
  IC50: 2.5 µM
CT26
  IC50: 15.9 µM

## CN(C)c1ccc(-n2cc3cc4c5ccccc5n(Cc5ccccc5)c4c[n+]3c2)cc1
BGC-823
  IC50: 7.7 µM
Bel-7402
  IC50: 16.2 µM
A549
  IC50: 7.5 µM
MCF7
  IC50: 14.1 µM
CT26
  IC50: 19.4 µM

## c1ccc(Cn2c3ccccc3c3cc4cn(-c5ccccc5)c[n+]4cc32)cc1
BGC-823
  IC50: 4.1 µM
Bel-7402
  IC50: 11.6 µM
A549
  IC50: 6.8 µM
MCF7
  IC50: 5.5 µM
CT26
  IC50: 7.3 µM

## COc1ccc(Cn2c3ccccc3c3cc4cn(-c5ccc(N(C)C)cc5)c[n+]4cc32)cc1
BGC-823
  IC50: 7.3 µM
Bel-7402
  IC50: 22.2 µM
A549
  IC50: 20.1 µM
MCF7
  IC50: 5.1 µM
CT26
  IC50: 11.5 µM

## FC(F)(F)c1ccc(-n2cc3cc4c5ccccc5n(Cc5cccc(Cl)c5)c4c[n+]3c2)cc1
BGC-823
  IC50: 7.5 µM
Bel-7402
  IC50: 21.5 µM
A549
  IC50: 12.1 µM
MCF7
  IC50: 4.9 µM
CT26
  IC50: 6.9 µM

## Cn1c2ccccc2c2cc3cn(-c4cccc(C(F)(F)F)c4)c[n+]3cc21
BGC-823
  IC50: 17.6 µM
Bel-7402
  IC50: 10.9 µM
A549
  IC50: 21.8 µM
MCF7
  IC50: 19.9 µM
CT26
  IC50: 8.2 µM

## CCCCn1c2ccccc2c2cc3cn(-c4ccc5ccccc5c4)c[n+]3cc21
BGC-823
  IC50: 14.5 µM
Bel-7402
  IC50: 5.7 µM
A549
  IC50: 8.3 µM
MCF7
  IC50: 12.7 µM
CT26
  IC50: 4.9 µM

## FC(F)(F)c1ccc(-n2cc3cc4c5ccccc5n(Cc5ccccc5)c4c[n+]3c2)cc1
BGC-823
  IC50: 1.1 µM
Bel-7402
  IC50: 16.3 µM
A549
  IC50: 23.2 µM
MCF7
  IC50: 9.1 µM
CT26
  IC50: 15.9 µM
